Measurements as given in patent US10076525B2, “Sex steroid precursors alone or in combination with selective estrogen receptor modulators for the prevention and treatment of dyspareunia in postmenopausal women” (ENDORECHERCHE, INC., priority 2004, dated 2018).
Structures can show the parent of a compound that is named as a salt.

How the values were obtained:
estrogen receptor = test: Testing of antiestrogens for SERM function
rat vagina [1] = test: Comparison of SERMs: vaginal epithelium morphology in the OVX rat (Example 2); settings: OVX rats, 0.5 mg/kg oral daily
Description: Ten to twelve week-old female Sprague-Dawley rats (Crl:CD(SD)Br) (Charles River Laboratory, St-Constant, Canada) weighing 215-265 g at time of ovariectomy were used. The animals were housed individually in an environmentally-controlled room (temperature: 22±3° C.; humidity: 50±20%; 12-h light-12-h dark cycles, lights on at 07:15 h). The animals were allowed free access to tap water and a certified rodent feed (Lab Diet 5002 (pellet), Ralston Purina, St-Louis, Mo.).
Different experiments were performed: two 20-day and two 8-month studies. In each of the two first experiments, the animals were randomly distributed between 3 groups of 13 or 14 animals as follows: 1) Intact control; 2) Ovariectomized (OVX) control; 3) OVX+raloxifene (0.5 mg/kg), or, 3) OVX+LY 363381 (0.5 mg/kg). […] In the other 8-month study, the animals were randomly distributed between 3 groups of 10-11 animals as follows: 1) Intact control; 2) Ovariectomized (OVX) control; 3) OVX+lasofoxifene (0.5 mg/kg). […] The tested compounds were then given once daily by oral gavage as a suspension in 0.4% methylcellulose (0.5 ml/rat) from day 1 to day 20 of the study or from day 1 to week 32 of the study.
Twenty-four hours after the last dosing, the animals were sacrificed under isoflurane anesthesia by exsanguination. The vaginae were collected and immersed in 10% neutral buffered formalin immediately after resection. […] The segments were then routinely processed and embedded in paraffin blocks. When appropriate, all the segments were positioned in the paraffin block in a sequence corresponding to their original anatomical position and oriented perpendicular to the surface of the block, thus allowing the segments to be cut in cross-sections. For each animal, a 4 μm-thick paraffin section was cut and stained with haematoxylin-eosin for morphological examination.

rat vagina [2] = test: Histological evaluation of epithelium, lamina propria and muscularis in the seven rat vaginal segments; assay type: in vivo; settings: OVX rats, 36 wk
Excerpt: The animals were housed individually and were allowed free access to water and rodent food (Lab Diet 5002, Ralston Purina, St-Louis, Mo.).
(§1) Animals from the intact and OVX control groups received the vehicle alone.
(§2) Twenty-four hours after the last dosing, overnight fasted animals were sacrificed under isoflurane anesthesia by exsanguination at the abdominal aorta (9 animals per group) or by intracardiac perfusion with 10% neutral buffered formalin (5 animals per group). Vaginae from non-perfused animals were collected and weighed, while the vaginae collected from perfused animals were marked with black ink on the ventral side, and then trimmed as described below.
(§3) The entire vagina of each perfused animal was post-fixed in 10% neutral buffered formalin.
The degree of compactness of collagen fibers in the vagina was categorized as low, moderate and high (FIGS. 6A-6C, respectively), as observed in the area proximal to the epithelium. <<Low>> and <<moderate compactness>> were associated with the presence of coarse collagen fibers loosely or less loosely aggregated together, respectively, while <<high compactness>> was the term used to describe tightly packed fine collagen fibers, displaying a smooth, textured appearance. In all the animals, there were relatively few fibrocytes in proportion to the amount of collagen, and they appeared predominantly flattened and shrunken.

AR = test: Immunohistochemistry of AR in fifth vaginal segment; assay type: in vivo, rat; settings: OVX rats, 36 wk
Description: as §1
(§4) Immunostaining was performed using Zymed SP kits (San Francisco, Calif.). Paraffin sections (4 μm) were deparaffinized in toluene and rehydrated through ethanol. Endogenous peroxidase activity was eliminated by preincubation with 3% H2O2 in methanol for 30 min. A microwave retrieval technique using citrate buffer (Tacha and Chen, 1994) was applied. After cooling the slides, non-specific binding was blocked using 10% goat serum for 20 min. Sections were then incubated for 1.5 h at room temperature with ERα (AB-1, Calbiochem, California), AR (N-20, Santa Cruz Biotechnology, California) or PR (Ab-4, NeoMarkers, California) antibodies, at 1:200, 1:250 and 1:250 respectively. After washing in PBS buffer, sections were incubated with biotinylated anti-rabbit secondary antibody for 10 min and thereafter with streptavidin-peroxidase for another 10 min. Diaminobenzidine was used as the chromogen to visualize the biotin/streptavidin-peroxidase complex, under microscope monitoring. Counterstaining was performed using #2 Gill's hematoxylin for 30 sec. For controls, immunoabsorption with an excess of the peptide used to raise the antibody, or substitution with non immune rabbit IgG, was performed.

rat vagina [3] = test: Vaginal weight after 36 weeks of treatment; assay type: in vivo; settings: OVX rats, 36 wk, versus OVX
Excerpt: as §1, §2
(§5) Data are presented as means±SEM of 8-9 animals per group for vaginal weight or 5 animals per group for vaginal layer thickness determinations. Statistical significance was determined according to the multiple-range test of Duncan-Kramer (Kramer, 1956, Biometrics, 12: 307-310).

rat vagina [4] = test: Histomorphometry: thickness of vaginal layers at the fifth segment; assay type: in vivo; settings: OVX rats, 36 wk, fifth segment, mean±SEM
Excerpt: as §1, §2, §3
Measurements of the different vaginal layers were performed on the fifth segment (FIG. 1), which is approximately halfway between the middle region and the portio vaginalis uteri (segment 7). […] Images were captured with a DC-330 3CCD color camera (Dage-MTI, Michigan City, Ind., USA) and quantified using Image-Pro Plus 3.0 software (Media Cybernetics, Silver Spring, Md., USA). Thus, using a ×5 objective (Leica Microsystems, Willowdale, Ont., Canada), 3 to 4 thickness measurements per layer were obtained from representative areas of the epithelium and muscularis, and for the three vaginal layers together. The total vaginal thickness, the thickness of the epithelium and the thickness of the muscularis were thus measured. The thickness of the lamina propria was obtained by subtracting the thickness of the epithelium and muscularis from total vaginal thickness.
as §5

PR = test: Immunohistochemistry of PR in fifth vaginal segment; assay type: in vivo, rat; settings: OVX rats, 36 wk
Description: as §1, §4

[5] = Acolbifene 2.5, Premarin 0.5 mg/kg oral, DHEA 80 mg/kg dorsal skin, segment 1

## CC/C(=C(\c1ccccc1)c1ccc(/C=C/C(=O)O)cc1)c1ccccc1 [GW-5638]
Estrogen receptor
  function as SERM: found to function as SERMs

## CC/C(=C(/c1ccc(OCCN(C)C)cc1)c1cccc(O)c1)c1ccccc1 [Droloxifene]
Estrogen receptor
  function as SERM: found to function as SERMs

## C[C@]12CC[C@@H]3c4ccc(O)cc4C[C@@H](CCCCCCCCC[S+]([O-])CCCC(F)(F)C(F)(F)F)[C@H]3[C@@H]1CC[C@@H]2O (stereo partly shown) [ICI 182,780]
Estrogen receptor
  function as SERM: found not to function as SERM

## Cc1c(-c2ccc(O)cc2)n(Cc2ccc(OCCN3CCCCC3)cc2)c2ccc(O)cc12 [ERA-923]
Rat vagina [1]; 8-month study
  mucous cell layer(s) overlying the basal cell layer, middle of the vagina: one

## Oc1ccc2c(c1)CC[C@H](c1ccccc1)[C@@H]2c1ccc(OCCN2CCCC2)cc1 [lasofoxifene, (−)-cis-(5R,6S)-6-phenyl-5-[4-(2-pyrrolidin-1-ylethoxy)phenyl]-5,6,7,8-tetrahydronaphthalen-2-ol, D-(−)-tartrate salt]
Estrogen receptor
  function as SERM: found to function as SERMs
Rat vagina [1]; 8-month study
  mucous cell layer(s) overlying the basal cell layer, middle of the vagina: many

## O=C(c1ccc(OCCN2CCCCC2)cc1)c1c(-c2ccc(O)cc2)sc2cc(O)ccc12 [Raloxifene]
Estrogen receptor
  function as SERM: found to function as SERMs
Rat vagina [1]; 20-day study
  mucous cell layer(s) overlying the basal cell layer, middle of the vagina: many

## CC/C(=C(\c1ccccc1)c1ccc(OCCN(C)C)cc1)c1ccccc1 [Tamoxifen, (Z)-2-[4-(1,2-diphenyl-1-butenyl)]-N,N-dimethylethanamine]
Estrogen receptor
  function as SERM: found to function as SERMs

## Cc1c(-c2ccc(O)cc2)n(Cc2ccc(OCCN3CCCCCC3)cc2)c2ccc(O)cc12 [TSE-424]
Estrogen receptor
  function as SERM: found to function as SERMs
Rat vagina [1]; 8-month study
  mucous cell layer(s) overlying the basal cell layer, middle of the vagina: one

## COc1ccc(-c2sc3cc(O)ccc3c2Oc2ccc(OCCN3CCCCC3)cc2)cc1 [Arzoxifene]
Estrogen receptor
  function as SERM: found to function as SERMs

## CC1=C(c2ccc(O)cc2)[C@H](c2ccc(OCCN3CCCCC3)cc2)Oc2cc(O)ccc21.Cl [Acolbifene]
Rat vagina [2]; [5]
  compactness of collagen fibers (lamina propria): M-M
  lamina propria thickness: M-M
Rat vagina [2]; Acolbifene 2.5, Premarin 0.5 mg/kg oral, DHEA 80 mg/kg dorsal skin, segment 2
  epithelium morphology: SCM-A
Rat vagina [2]; Acolbifene 2.5, Premarin 0.5 mg/kg oral, DHEA 80 mg/kg dorsal skin, segment 3
  epithelium morphology: SCM-A
Rat vagina [2]; Acolbifene 2.5, Premarin 0.5 mg/kg oral, DHEA 80 mg/kg dorsal skin, segment 4
  epithelium morphology: SCM-A
Rat vagina [2]; Acolbifene 2.5, Premarin 0.5 mg/kg oral, DHEA 80 mg/kg dorsal skin, segment 5
  epithelium morphology: SCM-A
Rat vagina [2]; Acolbifene 2.5, Premarin 0.5 mg/kg oral, DHEA 80 mg/kg dorsal skin, segment 6
  epithelium morphology: SCM-A
Rat vagina [2]; Acolbifene 2.5, Premarin 0.5 mg/kg oral, DHEA 80 mg/kg dorsal skin, segment 7
  epithelium morphology: SCM-A
Rat vagina [2]; OVX controls 4-6 layers
  epithelium thickness of segment 1 (external opening): 9-11 cell layers
Rat vagina [2]; moderate to severe inflammation in all OVX animals
  animals showing signs of minimal inflammation: three out of five
AR; epithelium
  AR: labeling intensity: ++
  AR: semi-quantitative evaluation of labeled nuclei: 2
AR; lamina propria
  AR: labeling intensity: +++
  AR: semi-quantitative evaluation of labeled nuclei: 1
AR; muscularis
  AR: labeling intensity: +++
  AR: semi-quantitative evaluation of labeled nuclei: 1
Rat vagina [1]; 8-month study
  mucous cell layer(s) overlying the basal cell layer, middle of the vagina: one
Rat vagina [3]
  effect on vaginal weight: no effect
Rat vagina [4]; OVX 128±3, intact 262±39
  total vaginal wall thickness: 108±8 μm
Rat vagina [4]; total minus epithelium and muscularis, OVX 76±2, intact 135±28
  lamina propria thickness: 60±8 μm
PR; epithelium
  PR: semi-quantitative evaluation of labeled nuclei: 0
PR; lamina propria
  PR: semi-quantitative evaluation of labeled nuclei: 0
PR; muscularis
  PR: semi-quantitative evaluation of labeled nuclei: 0

## COc1ccc(-c2sc3cc(O)ccc3c2Oc2ccc(OCCN3CCCCC3)cc2)cc1 [LY 363381]
Rat vagina [1]; 20-day study
  mucous cell layer(s) overlying the basal cell layer, middle of the vagina: many

## CC1=C(c2ccc(OC(=O)C(C)(C)C)cc2)[C@H](c2ccc(OCCN3CCCCC3)cc2)Oc2cc(OC(=O)C(C)(C)C)ccc21 [EM-800]
Estrogen receptor
  function as SERM: found to function as SERMs
